Measurements from patent US8338363B2, “Pharmaceutical compositions comprising casein derived peptides and methods of use thereof” (Mileutis Ltd., priority 2005, dated 2012).

Test: Welfare of cows induced to dry off (Example 6): udder pressure index, steps/lying ratio
Assay type: in vivo, Holstein cows
Description: 20 Holstein cows toward the end of lactation (˜60 days) and producing 17-35 liters milk per day were entered to the study. Cows were paired according to lactation number, days in milk, days to parturition, teat-end integrity, milk yield, SCC per ml of milk per cow or quarter and number of quarters infected at day of drying-off (Table 13).
Quarter's milk SCC and bacterial isolation were tested a week apart for 3 times, before drying-off. One cow of each pair was then assigned to a subgroup randomly (by flipping a coin). Cows in subgroup 1 were treated after milking with casein hydrolyzate and with the broad range antibiotic Cefquinome, (75 mg per dose) (N+C), while the cows in subgroup 2 were treated with Cefquinome alone (75 mg per dose) (C). […]
Udder pressure index (UPI) was set as follows: 0, 1, 2 and 3, where 0 is no pressure, 1 is medium pressure, 2 is high pressure and 3 is extremely high pressure. Arbitrary UPI values were determined by assessing the udder pressure by pressing a finger into the tissue and assessing its resistant to pressure in two areas, the milk cistern and corpus ubeis, 10 cm above the teats. […]
Data were statistically analyzed using the fit model procedure for repeated measurements of JMP (Version 5, SAS Institute, Cary, N.C.); treatment was the between-subject factor and time was the within-subject factor. […]

CO/N=C(\C(=O)N[C@@H]1C(=O)N2C(C(=O)[O-])=C(C[n+]3cccc4c3CCCC4)CS[C@H]12)c1csc(N)n1 [C, Cefquinome]
Udder pressure index (UPI), single cow (day 4 after treatment, cow with milk yield over 30 liters per day at dry-off (FIG. 4)): ~2
ratio between number of steps and duration of lying (RSL) (from the second day after treatment, 10 cows per group (FIG. 5)): unchanged
